Series [1] has as its system Staphylococcus aureus. Nature of the series: Antibacterial activity against Methicillin resistant staphylococcus aureus (MRSA). It counts as functional.
The test system of a further series is Enterococcus sp. Nature of the series: Antibacterial activity against Enterococcus species., VanA. The class given is functional.
The subject of a further series is Streptococcus pneumoniae. Nature of the series: Antibacterial activity against Streptococcus pneumoniae. It counts as functional.
Series [2] is described as follows: Cmax (Tissue distribution) of compound was determined at a dose of 5 mg/kg in human. It counts as ADME, organism-based. Also on record: dose 5 mg/kg. The note with it: in vivo.
Series [3] is described as follows: Half life of compound was determined in man with once daily dosing. The class given is ADME. The following applies: human.
Series [4] deals with Staphylococcus aureus. Nature of the series: Antibacterial activity against Vancomycin resistant staphylococcus aureus (VRSA). The class given is functional.
The subject of another series is Enterococcus faecalis. The series can be described thus: Inhibitory activity of compound against VanA Enterococcus faecalis MGH-01. It counts as functional, organism-based.
Series [5] deals with Staphylococcus aureus. Nature of the series: Inhibitory activity of compound against Staphylococcus aureus ATCC 33591. It counts as functional, organism-based.
The subject of another series is Streptococcus agalactiae. Nature of the series: Inhibitory activity of compound against Streptococcus agalactiae KPB-01. The class given is functional, organism-based.

The values that follow come from ChEMBL document CHEMBL1136451, “Semi-synthetic glycopeptide antibacterials” (Bioorg Med Chem Lett, 2003).

Converted amounts (≈) assume the structure as drawn.

On to `CN[C@H]1C(=O)N[C@@H]2Cc3ccc(cc3)Oc3cc4cc(c3O[C@@H]3O[C@H](C(=O)O)[C@@H](O)[C@H](O)[C@H]3NC(=O)CCCCCCCCC(C)C)Oc3ccc(cc3Cl)[C@@H](O)[C@@H]3NC(=O)[C@H](NC(=O)[C@@H]4NC(=O)[C@@H](NC2=O)c2cc(cc(O)c2Cl)Oc2cc1ccc2O)c1ccc(O)c(c1)-c1c(O[C@H]2O[C@H](CO)[C@@H](O)[C@H](O)[C@@H]2O)cc(O)cc1[C@@H](C(=O)NCCCN(C)C)NC3=O` [DALBAVANCIN], for which the MIC90 against Staphylococcus aureus [1] came out at 0.25 µg/mL (≈ 0.138 µM); against Enterococcus sp. it was 128 µg/mL (≈ 70.5 µM); against Streptococcus pneumoniae it was 0.06 µg/mL (≈ 0.033 µM).

In the case of `CCCCCCCCCCNCCN[C@@]1(C)C[C@H](O[C@H]2[C@H](Oc3c4cc5cc3Oc3ccc(cc3Cl)[C@@H](O)[C@@H](NC(=O)[C@@H](CC(C)C)NC)C(=O)N[C@@H](CC(N)=O)C(=O)N[C@H]5C(=O)N[C@H]3C(=O)N[C@H](C(=O)N[C@H](C(=O)O)c5cc(O)c(CNCP(=O)(O)O)c(O)c5-c5cc3ccc5O)[C@H](O)c3ccc(c(Cl)c3)O4)O[C@H](CO)[C@@H](O)[C@@H]2O)O[C@@H](C)[C@H]1O`, the Cmax in [2] is 45000 ng/mL. Besides, the half-life in series [3] is 7 h.

As for `CCCCCCCCCCNCCN[C@@]1(C)C[C@H](O[C@H]2[C@H](Oc3c4cc5cc3Oc3ccc(cc3Cl)[C@@H](O)[C@@](C)(NC(=O)[C@@H](CC(C)C)NC)C(=O)N[C@@H](CC(N)=O)C(=O)N[C@H]5C(=O)N[C@H]3C(=O)N[C@H](C(=O)N[C@H](C(=O)O)c5cc(O)c(CNCP(=O)(O)O)c(O)c5-c5cc3ccc5O)[C@H](O)c3ccc(c(Cl)c3)O4)O[C@H](CO)[C@@H](O)[C@@H]2O)O[C@@H](C)C1O` (stereo not given in full) [listing 1 of 2 here], the MIC90 was found to be 1 µg/mL (≈ 0.565 µM) against Staphylococcus aureus [1], 8 µg/mL (≈ 4.52 µM) with Enterococcus sp. and 0.008 µg/mL (≈ 0.00452 µM) with Streptococcus pneumoniae. Also, the MIC against Staphylococcus aureus [4] came out at 2 µg/mL (≈ 1.13 µM).

`CCCCCCCCCCNCCN[C@@]1(C)C[C@H](O[C@H]2[C@H](Oc3c4cc5cc3Oc3ccc(cc3Cl)[C@@H](O)[C@@](C)(NC(=O)[C@@H](CC(C)C)NC)C(=O)N[C@@H](CC(N)=O)C(=O)N[C@H]5C(=O)N[C@H]3C(=O)N[C@H](C(=O)N[C@H](C(=O)O)c5cc(O)c(CNCP(=O)(O)O)c(O)c5-c5cc3ccc5O)[C@H](O)c3ccc(c(Cl)c3)O4)O[C@H](CO)[C@@H](O)[C@@H]2O)O[C@@H](C)C1O` (stereo not given in full) [listing 2 of 2 here]: the figures for the IC50 in the series with Enterococcus faecalis, in the series with Staphylococcus aureus [5] and in the series on Streptococcus agalactiae were 10 µg/mL (≈ 5.65 µM), 23 µg/mL (≈ 13 µM) and 15 µg/mL (≈ 8.48 µM), respectively.

For `CN[C@H](CC(C)C)C(=O)N[C@H]1C(=O)N[C@@H](CC(N)=O)C(=O)N[C@H]2C(=O)N[C@H]3C(=O)N[C@H](C(=O)N[C@H](C(=O)O)c4cc(O)cc(O)c4-c4cc3ccc4O)[C@H](O)c3ccc(c(Cl)c3)Oc3cc2cc(c3O[C@@H]2O[C@H](CO)[C@@H](O)[C@H](O)[C@H]2O[C@H]2C[C@](C)(N)[C@H](O)[C@H](C)O2)Oc2ccc(cc2Cl)[C@H]1O` [VANCOMYCIN], the MIC90 against Staphylococcus aureus [1] is 1 µg/mL (≈ 0.69 µM); against Enterococcus sp. it was 4 µg/mL (≈ 2.76 µM); in the series with Streptococcus pneumoniae, 0.008 µg/mL (≈ 0.00552 µM).

Turning to `CCCCCCCCCCNCCN[C@@]1(C)C[C@H](O[C@H]2[C@H](Oc3c4cc5cc3Oc3ccc(cc3Cl)[C@@H](O)[C@]3(C)NC(=O)[C@H](NC(=O)[C@@H]5NC(=O)[C@H](CC(N)=O)NC(=O)[C@](C)(NC(=O)[C@@H](CC(C)C)NC)[C@H](O)c5ccc(c(Cl)c5)O4)c4ccc(O)c(c4)-c4c(O)cc(O)cc4[C@@H](C(=O)O)NC3=O)O[C@H](CO)[C@@H](O)[C@@H]2O)O[C@@H](C)C1O` (stereo not given in full), the lowest concentration to inhibit growth in the series with Staphylococcus aureus [4] (MIC) was 0.4 µg/mL (≈ 0.241 µM).

For `CN[C@H](CC(C)C)C(=O)N[C@H]1C(=O)N[C@@H](CC(N)=O)C(=O)N[C@H]2C(=O)N[C@H]3C(=O)N[C@H](C(=O)N[C@H](C(=O)O)c4cc(O)cc(O)c4-c4cc3ccc4O)[C@H](O[C@H]3C[C@](C)(N)[C@@H](O)[C@H](C)O3)c3ccc(c(Cl)c3)Oc3cc2cc(c3O[C@@H]2O[C@H](CO)[C@@H](O)[C@H](O)[C@H]2O[C@H]2C[C@](C)(NCc3ccc(-c4ccc(Cl)cc4)cc3)[C@@H](O)[C@H](C)O2)Oc2ccc(cc2Cl)[C@H]1O` [ORITAVANCIN], the MIC90 against Staphylococcus aureus [1] is 1 µg/mL (≈ 0.558 µM); against Enterococcus sp. it was 4 µg/mL (≈ 2.23 µM); in the series on Streptococcus pneumoniae, 0.008 µg/mL (≈ 0.00446 µM). In the series on Staphylococcus aureus [4], this molecule showed an MIC of 0.5 µg/mL (≈ 0.279 µM).
